Measurements as given in BindingDB's records for doi:10.7270/Q2M043S8 (University of Pittsburgh, 2006).
pIC50: −log10 of the molar value.

Biological target: T1, Dual specificity protein phosphatase 6 (Rattus norvegicus, UniProt Q64346)
T1 sequence (Q64346 whole entry): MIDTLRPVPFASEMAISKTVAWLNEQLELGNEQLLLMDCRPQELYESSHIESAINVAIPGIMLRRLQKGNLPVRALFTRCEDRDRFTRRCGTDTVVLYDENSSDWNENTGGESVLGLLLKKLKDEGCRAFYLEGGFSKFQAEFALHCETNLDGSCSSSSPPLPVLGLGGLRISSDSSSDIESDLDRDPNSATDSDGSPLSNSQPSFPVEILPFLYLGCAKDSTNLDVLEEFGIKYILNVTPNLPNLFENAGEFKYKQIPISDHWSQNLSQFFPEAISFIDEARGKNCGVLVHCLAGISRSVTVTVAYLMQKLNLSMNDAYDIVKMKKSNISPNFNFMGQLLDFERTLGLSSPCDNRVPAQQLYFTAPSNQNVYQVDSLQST
Assay: catalase influence on rat DUSP6 inhibition – biochemical, catalase added, probe assessment, dose response (AID 564)

| SMILES | pIC50 |
| --- | --- |
| Cc1ccc(C)n1-c1cccc(C(=O)O)c1 | < 4.30 |
| O=C(Nc1ccc2nc(-c3ccco3)c(-c3ccco3)nc2c1)N1CCCCCC1 | < 4.30 |
| CCCCCC#CCC#CCC#CCC#CCCCC(=O)O | < 4.30 |
| Cn1ncnc2c(=O)n(C)c(=O)nc1-2 | < 4.30 |
| [O-]/[N+](=C\c1ccncc1)c1ccccc1 | < 4.30 |
| O=C1C=Cc2ccccc2C1=O [1,2-dihydronaphthalene-1,2-dione] | < 4.30 |
| Cc1nc2cc(-c3cccc(F)c3)nn2c(C)c1CCC(=O)N1CCC2(CC1)OCCO2 [1-(1,4-dioxa-8-azaspiro[4.5]decan-8-yl)-3-[2-(3-fluorophenyl)-5,7-dimethyl-6-pyrazolo[1,5-a]pyrimidinyl]-1-propanone] | < 4.30 |
| CCn1nc(-c2ccccc2)nc2c(=O)n(C)c(=O)nc1-2 [1-Ethyl-6-methyl-3-phenyl-1H-pyrimido[5,4-e][1,2,4]triazine-5,7-dione] | < 4.30 |
| Cc1cc(C)n2c(SCC(=O)N3CCN(S(=O)(=O)c4ccc(Cl)cc4)CC3)nnc2n1 [1-[4-(4-chlorophenyl)sulfonyl-1-piperazinyl]-2-[(5,7-dimethyl-[1,2,4]triazolo[4,3-a]pyrimidin-3-yl)thio]ethanone] | < 4.30 |
| [O-]/[N+](=C\c1ccc(OC(F)F)cc1)c1ccccc1 [1-[4-(difluoromethoxy)phenyl]-N-phenylmethanimine oxide] | < 4.30 |
| CCCCn1c(SCC(=O)c2ccc(OC)cc2OC)nc2cc(S(N)(=O)=O)ccc21 [1-butyl-2-[2-(2,4-dimethoxyphenyl)-2-oxidanylidene-ethyl]sulfanyl-benzimidazole-5-sulfonamide] | < 4.30 |
| CCn1nc(-c2cccs2)nc2c(=O)n(C)c(=O)nc1-2 [1-ethyl-6-methyl-3-thiophen-2-yl-pyrimido[5,4-e][1,2,4]triazine-5,7-dione] | < 4.30 |
| O=C(Nc1ccccc1)c1ccc2nc(-c3ccco3)c(-c3ccco3)nc2c1 [2,3-di-2-furyl-N-phenyl-6-quinoxalinecarboxamide] | < 4.30 |
| CC(C)Cn1c(N)c(C(=O)COC(=O)c2cc(-c3ccco3)nc3ccccc23)c(=O)n(C)c1=O [2-(2-furanyl)-4-quinolinecarboxylic acid [2-[4-amino-1-methyl-3-(2-methylpropyl)-2,6-dioxo-5-pyrimidinyl]-2-oxoethyl] ester] | < 4.30 |
| CCOc1ccc(-c2cc3nc(C4CCN(C(=O)OC(C)(C)C)CC4)c(C(=O)O)cn3n2)cc1 [2-(4-ethoxyphenyl)-5-[1-[(2-methylpropan-2-yl)oxy-oxomethyl]-4-piperidinyl]-6-pyrazolo[1,5-a]pyrimidinecarboxylic acid] | < 4.30 |
| COc1ccc(-c2cc3nc(C4CCN(C(=O)OC(C)(C)C)CC4)c(C(=O)O)cn3n2)cc1 [2-(4-methoxyphenyl)-5-[1-[(2-methylpropan-2-yl)oxy-oxomethyl]-4-piperidinyl]-6-pyrazolo[1,5-a]pyrimidinecarboxylic acid] | < 4.30 |
| Cc1cccc(NC(=O)c2cc(NC(=O)C3CCCCC3C(=O)O)ccc2N2CCCCC2)c1 (configuration not stated) [2-({[3-{[(3-methylphenyl)amino]carbonyl}-4-(1-piperidinyl)phenyl]amino}carbonyl)cyclohexanecarboxylic acid] | < 4.30 |
| Cc1ccc(/C=C/C2=Cc3c(sc(NC(=O)CSc4nnc(N)[nH]4)c3C#N)C(C)(C)C2)o1 [2-[(5-azanyl-1H-1,2,4-triazol-3-yl)sulfanyl]-N-[3-cyano-7,7-dimethyl-5-[(E)-2-(5-methylfuran-2-yl)ethenyl]-6H-1-benzothiophen-2-yl]ethanamide] | < 4.30 |
| CCCCNC(=O)c1c(N)n(CCCOC)c2nc3ccccc3nc12 [2-amino-N-butyl-1-(3-methoxypropyl)-3-pyrrolo[3,2-b]quinoxalinecarboxamide] | < 4.30 |

| SMILES | pIC50 |
| --- | --- |
| N#Cc1c(N)sc(=S)c2c1CCN(Cc1ccccc1)C2 [3-Amino-7-benzyl-1-thioxo-5,6,7,8-tetrahydro-1H-thiopyrano[3,4-c]pyridine-4-carbonitrile] | 4.32 |
| O=C1C=C(NCc2ccc(Cl)c(Cl)c2)CC1 [3-[(3,4-dichlorobenzyl)amino]cyclopent-2-en-1-one] | < 4.30 |
| CCCSc1nnc(NC(=O)c2sc3nc(-c4cccs4)ccc3c2N)s1 [3-amino-N-(5-propylsulfanyl-1,3,4-thiadiazol-2-yl)-6-thiophen-2-ylthieno[2,3-b]pyridine-2-carboxamide] | < 4.30 |
| O=C1Nc2ccccc2SC(c2ccccc2)C1O (configuration not stated) [3-hydroxy-2-phenyl-2,3-dihydro-1,5-benzothiazepin-4(5H)-one] | < 4.30 |
| CC(C)(C)N1C(=O)Cc2c1nc(N)c1c(N)nc(N3CCCCC3CO)c(C#N)c21 (configuration not stated) [5,6-bis(azanyl)-3-tert-butyl-8-[2-(hydroxymethyl)piperidin-1-yl]-2-oxidanylidene-1H-pyrrolo[2,3-c][2,7]naphthyridine-9-carbonitrile] | < 4.30 |
| COc1cc(/C=C(/C#N)c2ccc(F)cc2)ccc1OCc1ccc(C(=O)O)o1 [5-({4-[2-cyano-2-(4-fluorophenyl)vinyl]-2-methoxyphenoxy}methyl)-2-furoic acid] | < 4.30 |
| COc1ccc(Br)cc1C=c1sc2nc(-c3ccco3)nn2c1=O [5-[(5-bromanyl-2-methoxy-phenyl)methylidene]-2-(furan-2-yl)-[1,3]thiazolo[3,2-b][1,2,4]triazol-6-one] | < 4.30 |
| CCOc1cc(/C=C(/C#N)c2ccc(F)cc2)ccc1OCc1ccc(C(=O)O)o1 [5-[[4-[(E)-2-cyano-2-(4-fluorophenyl)ethenyl]-2-ethoxyphenoxy]methyl]furan-2-carboxylic acid] | < 4.30 |
| N#Cc1c(NC(=O)c2ccc(Br)o2)n(-c2ccccc2)c2nc3ccccc3nc12 [5-bromanyl-N-(3-cyano-1-phenyl-pyrrolo[3,2-b]quinoxalin-2-yl)furan-2-carboxamide] | < 4.30 |
| Cc1cccc(N2CCN(C(=O)Cc3c(C(=O)O)[nH]c4ccc(Cl)cc34)CC2)c1C [5-chloranyl-3-[2-[4-(2,3-dimethylphenyl)piperazin-1-yl]-2-oxidanylidene-ethyl]-1H-indole-2-carboxylic acid] | < 4.30 |
| CCCCCNC(=O)c1ccc2c(=O)[nH]c3c(C(=O)NCC4CCCO4)sc(=S)n3c2c1 (configuration not stated) [5-oxo-N3-(2-oxolanylmethyl)-N8-pentyl-1-sulfanylidene-4H-thiazolo[3,4-a]quinazoline-3,8-dicarboxamide] | < 4.30 |
| Cc1nc2c(C(=O)NCCC3=CCCCC3)c[nH]n2c(=O)c1Cl [6-chloro-N-(2-cyclohex-1-en-1-ylethyl)-7-hydroxy-5-methylpyrazolo[1,5-a]pyrimidine-3-carboxamide] | < 4.30 |
| O=C(c1cccs1)c1no[n+]([O-])c1C(=O)c1cccs1 [(5-oxidanidyl-4-thiophen-2-ylcarbonyl-1,2,5-oxadiazol-5-ium-3-yl)-thiophen-2-yl-methanone] | < 4.30 |
| Nc1c(N2CCCC2)cc(Cl)c2nonc12 [(7-chloro-5-pyrrolidino-benzofurazan-4-yl)amine] | < 4.30 |
| [O-]/[N+](=C/c1ccc(F)cc1)c1ccccc1 [(E)-(4-fluorobenzylidene)(phenyl)azane oxide] | < 4.30 |
| CC1=C(/C=C/C(C)=C/C=C/C(C)=C/C(=O)O)C(C)(C)CCC1 [ALL-TRANS-RETINOIC ACID] | < 4.30 |
| CC(=O)[C@@H]1[C@@H]2C(=O)N(c3ccc(F)c(Cl)c3)C(=O)[C@@H]2C2c3ccccc3C=CN21 (some centres not stated) [MLS000040594] | < 4.30 |
| COCCCn1c(N)c(C(=O)NCCC(C)C)c2nc3ccccc3nc21 [MLS000041744] | < 4.30 |
| CCn1c(SCC(=O)Nc2ccc3c(c2)c2ccccc2n3CC)nnc1-c1ccco1 [MLS000050867] | < 4.30 |

| SMILES | pIC50 |
| --- | --- |
| O=C1C(=C2C(=O)c3ccccc3C2=O)Nc2ccccc21 [MLS000071738] | < 4.30 |
| COc1ccc(-n2c(NC(=O)c3ccco3)c(C#N)c3nc4ccccc4nc32)cc1 [MLS000079925] | < 4.30 |
| COc1ccc(Cn2c(C)nc3c(c2=O)c2nc4ccccc4nc2n3Cc2ccco2)cc1 [MLS000079944] | 4.32 |
| Cc1ccc(-c2csc(NC(=O)c3ccno3)n2)cc1 [MLS000081820] | < 4.30 |
| CC(C)Sc1nc2sc3c(c2c2nnc(SCC(=O)NCc4ccco4)n12)CCCC3 [MLS000082957] | < 4.30 |
| Nc1nc2c(s1)CCc1c-2cnn1-c1ccccc1 [MLS000085948] | < 4.30 |
| Cc1cc(NC(=O)c2ccc(S(=O)(=O)N3CCCC3)cc2)nc2c1c(=O)oc1ccccc12 [MLS000091355] | < 4.30 |
| FC(F)(F)c1ccc(N2CCOCC2)c(Nc2nc3ccccc3n3cnnc23)c1 [MLS000093276] | < 4.30 |
| COC(=O)c1ccccc1NC(=O)CN1C(=O)C2CCCN2c2ncc(Cl)cc21 (configuration not stated) [MLS000094302] | < 4.30 |
| CCc1ccc(NC(=O)CSc2nc3ccccc3c(=O)n2CCN2CCOCC2)cc1 [MLS000095236] | < 4.30 |
| Cc1c(N=c2c(=O)c3ccccc3c2=O)c(=O)n(-c2ccccc2)n1C [MLS000105950] | < 4.30 |
| CCOc1ccc2noc3c2c1C(=O)c1ccccc1-3 [MLS000106837] | < 4.30 |
| COc1ccc2noc3c2c1C(=O)c1ccccc1-3 [MLS000106874] | < 4.30 |
| CCOC(=O)c1ccc2c(c1)C1C=CCC1C(C(=O)O)N2 (configuration not stated) [MLS-0025126.0001] | < 4.30 |
| O=C(NC1(O)C(=O)c2ccccc2C1=O)c1ccccc1 [N-(2-hydroxy-1,3-dioxo-2-indenyl)benzamide] | < 4.30 |
| O=C(OC1CCCCC1)c1ccc2c(c1)C1C=CCC1C(C(=O)O)N2 (configuration not stated) [SMR000019385] | < 4.30 |
| O=C1c2ccccc2-c2onc3ccc(NCCCn4ccnc4)c1c23 [SMR000044769] | 4.32 |
| CCCCn1c(NC(=O)c2ccccc2)c(C#N)c2nc3ccccc3nc21 [SMR000060333] | < 4.30 |
| N#Cc1c(N2CCCC2)nc(N)c2c(N)nc(N3CCCC3)cc12 [SMR000061605] | < 4.30 |
